By EC50 is commonly meant the concentration giving half of the maximal effect. A lower EC50 goes with an effect from little substance.

Our source for the EC50 values is US20200071310A1, “N-ARYL PYRAZOLES AS NRF2 REGULATORS” (GLAXOSMITHKLINE INTELLECTUAL PROPERTY DEVELOPMENT LIMITED, priority 2016, published 2020).

The experiment deals with T1, full length Keap1 protein / full length NRF2 protein (Homo sapiens, UniProt Q14145).
T1 construct: full length NRF2 protein and full length Keap1 protein (Keap1 exists a dimer) are used; His
T1 sequence (Q14145 whole entry): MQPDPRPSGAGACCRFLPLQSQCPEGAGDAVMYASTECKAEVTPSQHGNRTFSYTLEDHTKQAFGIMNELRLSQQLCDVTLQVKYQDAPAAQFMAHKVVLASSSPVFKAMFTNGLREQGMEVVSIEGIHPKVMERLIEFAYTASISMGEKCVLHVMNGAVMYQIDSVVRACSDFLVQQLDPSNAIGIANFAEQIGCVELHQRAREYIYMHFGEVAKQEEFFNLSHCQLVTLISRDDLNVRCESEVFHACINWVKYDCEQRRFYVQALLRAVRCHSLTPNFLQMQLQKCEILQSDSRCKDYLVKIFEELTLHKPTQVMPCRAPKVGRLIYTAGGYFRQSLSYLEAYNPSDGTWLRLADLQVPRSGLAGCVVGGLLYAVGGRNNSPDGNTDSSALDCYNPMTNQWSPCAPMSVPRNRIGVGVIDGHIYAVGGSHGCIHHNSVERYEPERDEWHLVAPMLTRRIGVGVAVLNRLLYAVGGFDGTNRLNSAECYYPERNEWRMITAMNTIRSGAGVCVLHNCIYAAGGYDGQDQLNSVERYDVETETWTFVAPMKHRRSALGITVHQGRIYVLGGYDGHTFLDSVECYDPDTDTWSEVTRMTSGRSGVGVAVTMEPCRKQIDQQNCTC
In words: NRF2-Keap1 TR-FRET Low Protein Assay. Format: binding. From the text: In the NRF2-Keap1 TR-FRET (time-resolved fluorescence resonance energy transfer) low protein assay, full length NRF2 protein and full length Keap1 protein (Keap1 exists a dimer) are used. The assay detects a compound's ability to displace the binding of Keap1 FlagHis with biotinylated Avi-NRF2 protein. Biotin-NRF2 binds to streptavidin-europium (a component of the detection mix) and Keap1 FlagHis is recognized by anti-Flag APC (allophycocyanin) antibody (also a component of the detection mix). If binding occurs between the two proteins, there will be an energy transfer from the Eu+3 (donor) at 615 nm to the APC (acceptor) at 665 nm. A potential NRF2 inhibitor will cause a reduction in the TR-FRET signal by interfering with the binding of Keap1 to NRF2.
Ten nanoliters of 100× compound dose response curves (serial 3-fold dilutions) in DMSO were stamped using an Echo liquid handling system (Labcyte) into 384-well, low volume, black assay plates (Greiner, #784076), with DMSO in columns 6 and 18. An additional 90 nl DMSO was added to each well, to bring the total volume to 100 nl per well. The top concentration of compound was located in columns 1 and 13, with the serial dilutions going across the row. All reagents were diluted in assay buffer (50 mM Tris, pH 8.0, 5 mM MgCl2, 100 mM NaCl, 0.005% BSA, 1 mM DTT, and 2 mM CHAPS. The BSA, DTT, and CHAPS were added to the assay buffer on the day of assay. Using a Multidrop Combi (Thermo Electron Corporation) equipped with a metal tip dispenser, 5 ul of 1.25 nM Keap1 FlagHis protein was added to all wells of the compound plate, with the exception of the wells in column 18. Wells in column 18 received 5 ul of assay buffer instead. Plates were centrifuged at 500 rpm for 1 minute, covered with a plate lid, and incubated at 37° C. for 2.25 hours. Plates were then removed from the incubator and allowed to cool to RT for 15 minutes. Five microliters of 2.5 nM biotin-NRF2 protein was then added to all wells of the plates and the plates were spun at 500 rpm for 1 minute, followed by incubating at 4° C. for 1.25 hours. The plates were then allowed to warm to RT for 15 minutes, followed by the addition of 10 ul of detection mix (1 nM Streptavidin Eu+W1024 and 5 ug/ml mouse anti-DYKDDDDK IgG conjugated to SureLight APC antibody; both from Columbia Biosciences) to all wells. Plates were spun at 500 rpm for 1 minute, incubated for 1 hour at RT, and read on an Envision plate reader using a 320 nm excitation filter and 615 nm and 665 nm emission filters. Compound response (% inhibition) and potency (pIC50) were calculated based on the ratio of the two emissions (665 nm/615 nm) and then the transformed data was normalized against controls in the assay (control 1=1% DMSO in the presence of NRF2 and Keap1 protein and control 2=1% DMSO in the presence of only the NRF2 protein). Data analysis was handled using the software package Abase XE (Surrey, United Kingdom). The % inhibition values were calculated from the ratio (transformed) data by the equation:
100−(100*(compound response−average control 2)/(average control 1−average control2)).
For calculation of pIC50s, Abase XE used a four parameter equation.
IC50s<10 nM (+++++), IC50s 10-100 nM (++++), IC50s 100 nM-1 uM (+++), IC50s 1-10 uM (++). and IC50s 10 uM-100 uM (+), IC50s>100 uM (−), or were not determined (ND).
For orientation: In TR-FRET formats the signal depends on donor and acceptor labels being close together.

`CN(Cc1cccc(-n2ncc(C(=O)O)c2[C@@H]2C[C@H]2c2cn(C)nn2)c1)S(=O)(=O)c1ccccc1OC(F)(F)F` (racemic) [Example 46, 5-((trans)-2-(1-methyl-1H-1,2,3-triazol-4-yl)cyclopropyl)-1-(3-((N-methyl-2-(trifluoromethoxy)phenylsulfonamido)methyl)phenyl)-1H-pyrazole-4-carboxylic acid] gave an EC50 of 1000 to 10000 nM.

As to `CC(c1cccc(-n2ncc(C(=O)O)c2[C@@H]2C[C@H]2c2cn(C)nn2)c1)N1C[C@@H](C)Cc2ccc(C(F)(F)F)cc2S1(=O)=O` (single isomer, unassigned) [Example 6, 1-(3-((R or S)-1-((S)-4-Methyl-1,1-dioxido-8-(trifluoromethyl)-4,5-dihydrobenzo[f][1,2]thiazepin-2(3H)-yl)ethyl)phenyl)-5-((1R,2R)-2-(1-methyl-1H-1,2,3-triazol-4-yl)cyclopropyl)-1H-pyrazole-4-carboxylic acid], the EC50 was in the range of 10 to 100 nM.

In the case of `CC[C@H]1Cc2ccc(Br)cc2S(=O)(=O)N(Cc2cccc(-n3ncc(C(=O)O)c3[C@@H]3C[C@H]3c3cn(C)nn3)c2)C1` [Example 22, 1-(3-(((S)-8-bromo-4-ethyl-1,1-dioxido-4,5-dihydrobenzo[f][1,2]thiazepin-2(3H)-yl)methyl)phenyl)-5-((1R,2R)-2-(1-methyl-1H-1,2,3-triazol-4-yl)cyclopropyl)-1H-pyrazole-4-carboxylic acid], the EC50 is < 10 nM.

`C[C@H]1Cc2cc(C(F)(F)F)ccc2S(=O)(=O)N(Cc2cccc(-n3ncc(C(=O)O)c3[C@@H]3C[C@H]3c3cn(C)nn3)c2)C1` (racemic) [Example 19, 1-(3-((4-methyl-1,1-dioxido-7-(trifluoromethyl)-4,5-dihydro-benzo[f][1,2]thiazepin-2(3H)-yl)methyl)phenyl)-5-((trans)-2-(1-methyl-1H-1,2,3-triazol-4-yl)cyclopropyl)-1H-pyrazole-4-carboxylic acid] came in with an EC50 of 1000 to 10000 nM.

In turn, `COc1ccccc1S(=O)(=O)NCc1cccc(-n2ncc(C(=O)O)c2[C@@H]2C[C@H]2c2cn(C)nn2)c1` (racemic) [Example 52, 1-(3-((2-methoxyphenylsulfonamido)methyl)phenyl)-5-((trans)-2-(1-methyl-1H-1,2,3-triazol-4-yl)cyclopropyl)-1H-pyrazole-4-carboxylic acid] had an EC50 of 1000 to 10000 nM.

Molecule `CN(Cc1cccc(-n2ncc(C(=O)O)c2[C@@H]2C[C@H]2c2cn(C)nn2)c1)S(=O)(=O)c1cccc(Oc2ccccc2)c1` (racemic) [Example 35, 5-((trans)-2-(1-methyl-1H-1,2,3-triazol-4-yl)cyclo-propyl)-1-(3-((N-methyl-3-phenoxy-phenyl-sulfonamido)-methyl)phenyl)-1H-pyrazole-4-carboxylic acid] came in with an EC50 of 100 to 1000 nM.

In turn, `Cn1cc([C@@H]2C[C@H]2c2c(C(=O)O)cnn2-c2cccc(CN3CC(C)(C)Oc4ccc(F)cc4S3(=O)=O)c2)nn1` (racemic) [Example 5] displayed an EC50 of 10 to 100 nM.

In turn, `CC[C@H]1Cc2ccccc2CN(Cc2cccc(-n3ncc(C(=O)O)c3[C@@H]3C[C@H]3c3cn(C)nn3)c2)C1` [Example 11] yielded an EC50 of 100 to 1000 nM.

`CCCCCCN(Cc1cccc(-n2ncc(C(=O)O)c2[C@@H]2C[C@H]2c2cn(C)nn2)c1)S(=O)(=O)c1ccccc1Oc1ccccc1` (racemic) [Example 49, 1-(3-((N-hexyl-2-phenoxyphenylsulfonamido)methyl)phenyl)-5-((trans)-2-(1-methyl-1H-1,2,3-triazol-4-yl)cyclopropyl)-1H-pyrazole-4-carboxylic acid] had an EC50 of 1000 to 10000 nM.

In the case of `CC[C@@H]1CN(Cc2cccc(-n3ncc(C(=O)O)c3[C@@H]3C[C@H]3c3cnn(C)c3)c2)S(=O)(=O)c2ccccc2O1` [Example 31, 1-(3-(((R)-4-ethyl-1,1-dioxido-3,4-dihydro-2H-benzo[b][1,4,5]oxathiazepin-2-yl)methyl)-phenyl)-5-(trans-2-(1-methyl-1H-pyrazol-4-yl)cyclopropyl)-1H-pyrazole-4-carboxylic acid], the EC50 is 1000 to 10000 nM.

`C[C@@H]1Cc2cc(C(F)(F)F)ccc2S(=O)(=O)N(Cc2cccc(-n3ncc(C(=O)O)c3[C@@H]3C[C@H]3c3cnn(C)c3)c2)C1` [Example 33, 1-(3-(((R)-4-methyl-1,1-dioxido-7-(trifluoromethyl)-4,5-dihydro-benzo[f][1,2]thiazepin-2(3H)-yl)methyl)phenyl)-5-(trans-2-(1-methyl-1H-pyrazol-4-yl)cyclopropyl)-1H-pyrazole-4-carboxylic acid] had an EC50 of 10000 to 100000 nM.
